Data taken from patent publication US6399606B1, “Neuroprotective agents and methods related thereto” (Nippon Kayaku Co., Ltd., priority 1999, dated 2002).

System: rat taxol induced neuropathy model
Assay: Rat taxol neuropathy model (sensory nerve conduction velocity)
Type: in vivo, Sprague-Dawley female rats
Conditions: once daily
Description: In vivo efficacy of representative compounds were tested with rat taxol induced neuropathy model reported by Cliffer et al. (Ann. Neurol 43:46-55, 1998).
Method Sprague-Dawley female rats (215-225g) were used. One week prior to the initiation of dosing with test compounds, base line electrophysiological recording were obtained. Dosing of the test compounds was initiated one day prior to the first injection of taxol (A.G. Scientific). Beginning on Day 2 animals were injected with total of two doses of 15 mg/kg paclitaxel giving 3 days apart, for a cumulative dose of […].
On Day 1 of the study, all rat were randomized into groups of 10 each and weighed. Dosing with test compounds was initiated on Day 1 and continued for a total of 45 days. Test compounds were administered by intraperitoneal (i.p.) injection or by post orum (p.o.) gavage in conscious once daily. Paclitaxel was administered on Day 2 and 5 by tail vein injection at 6 mg/ml in 50% saline/25%Cremophore/25% ethanol. One group was given the paclitaxel vehicle alone in an equivalent volume. Test compounds were formulated for dosing daily, immediately prior to dosing. The compounds were formulated by adding 15% of the final volume of pure PEG400 to the compounds and mixed on an orbital shaker for 40 minutes. Following dissolution, saline was added and the solution was vortexed. Taxol (A.G. Scientific) is solvated with Cremophore-ethanol vehicle at 12 mg/ml and then diluted 50/50 with saline. The test compounds are solvated with saline at appropriate concentration.
Sensory and motor nerve conduction velocities were evaluated using a method based in the protocol described by De Koning and Gispen (Peptides 8:415-422, 1987). Electrophysiological evaluation was carried out as a double blind study. Animals were anesthetized with isofluorane. In order to maintain body temperature, anesthetized animals were placed on Deltaphase ™ Isothermal Pads and rectal temperatures were monitored. Stimulating needle electrodes were inserted close to the sciatic nerve at the sciatic notch and the tibial nerve near the ankle. Subcutaneous recording electrodes were placed over the distal lumbricales foot muscles. Stimuli were supramaximal square-waves of 0.1 msec duration generated with a Grass S88 Stimulator through a Grass stimulation isolation unit. An ETH-260 Bride/Bio Amplifier (CB Sciences Inc), computer (Macintosh Iici), and data acquisition system (MacLab/200) were used for the recordings. The motor and sensory nerve conduction velocities were calculated by measuring the distance between the sciatic notch and ankle sites, and the latency between the M-wave and the H-reflex. The electrophysiological evaluations were conducted 2 weeks later. Statistical analysis was carried out using unpaired t-tests and repeated measures of analysis of variance (ANOVA) using Statview. In all cases 5% was chosen as the level of statistical significance in two-tailed tests.

[1] = p.o. administration, 20 mg/kg, FIG. 2, 3

Compound | amelioration of taxol-induced retardation of sensory nerve conduction velocity [1] | other results
COC(=O)CC(CSC[C@H](NC(C)=O)C(=O)OC)C(=O)c1cccnc1 (stereo partly drawn) [compound 60] |  | amelioration of taxol-induced retardation of sensory nerve conduction velocity (i.p. administration at 10 mg/kg, FIG. 1, 3): active
CC(=O)N[C@@H](CSCC(CC(=O)N(C)C)C(=O)c1cccnc1)C(=O)N1CCN(C)CC1 (stereo partly drawn) [compound 440] | active | 
CC(=O)NCCSCC(CC(=O)N1CCCCC1)C(=O)c1cccnc1 (stereo not drawn) [compound 189] | active | amelioration of taxol-induced retardation of sensory nerve conduction velocity (i.p. administration at 2.5 mg/kg, FIG. 2): active
CC(=O)NCCSCC(CC(=O)N(C)C)C(=O)c1cccnc1 (stereo not drawn) [compound 188] |  | amelioration of taxol-induced retardation of sensory nerve conduction velocity (p.o. administration, 40 mg/kg, FIG. 2, 3): active
CCN(CC)CCN(C)C(=O)C(CSCC(CC(=O)N(C)C)C(=O)c1cccnc1)NC(C)=O (stereo not drawn) [compound 438] | active | 
